Reference: US10800752B2, “Substituted naphtho[2,3-b]furans as water-soluble prodrugs for preventing and/or treating cancer” (BOSTON BIOMEDICAL, INC., priority 2015, dated 2020)

Columns and labels:
[1] = Evaluation of a conversion rate to 2-acetylnaphtho[2,3-b]furan-4,9-dione in pH 7.4 phosphate buffer solution; assay type: physicochemical; settings: 1 umol/L, 37° C.; for % Measurement value of Activated form (conversion rate to 2-acetylnaphtho[2,3-b]furan-4,9-dione): formed from Example 6, phosphate buffer solution (pH 7.4); for % Measurement value (conversion rate to 2-acetylnaphtho[2,3-b]furan-4,9-dione): Phosphate buffer solution (pH 7.4)
How it was run: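 Compounds at 1 umol/L were incubated at 37° C in human plasma, CD1 mouse plasma or pH 7.4 phosphate buffer, sampled up to 120 minutes, acid/acetonitrile-deproteinised and analysed by LC-MS (ESI positive). Conversion (%) derived from the peak area ratio of the active form to phenytoin internal standard.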

[2] = Evaluation of a conversion rate to 2-acetylnaphtho[2,3-b]furan-4,9-dione in CD1 mouse plasma; assay type: in vitro ADME; settings: 1 umol/L; for % Measurement value of Activated form (conversion rate to 2-acetylnaphtho[2,3-b]furan-4,9-dione): CD1, mouse; for % Measurement value (conversion rate to 2-acetylnaphtho[2,3-b]furan-4,9-dione): CD1 mouse plasma, 37° C., incubation time 120 min
Method: (§1) For test compounds, the decrease rate of the test compounds and the conversion rate thereof to 2-acetylnaphtho[2,3-b]furan-4,9-dione in human plasma, CD1 mouse plasma, and pH 7.4 phosphate buffer solution were measured.
(§2) Test compounds were incubated at the concentration of 1 umol/L in human plasma (cat. no. 12250210, COSMO BIO), CD1 mouse plasma (cat. no. AP3054, KAC), and phosphate buffer solution at 37° C., and removed at predetermined times (0, 5, 10, 30, 60, and 120 minutes). After protein-removing treatment was performed, they are analyzed with LC-MS. It should be noted that the protein-removing treatment used acetonitrile containing: 10% volume of 1 mol/L hydrochloric acid; 1% volume of 46% citric acid; and phenytoin as an internal standard.
(§3) The measurement condition of LC-MS is as described below. LC-MS condition column: Kinetex 2.6 u PFP 100 A 50×2.1 mm Column temperature: 40° C.
(§4) Mobile phase: A: 0.1% formic acid-containing water
(§5) • B: 0.1% formic acid-containing acetonitrile A/B(min): 95/5(0)→5/95(3)→5/95(4)→95/5(4.1)→95/5(6) Flow rate: 0.4 mL/min Detection: ESI (positive mode) Injection volume: 10 uL
Measurement values are calculated from the peak area ratio in LC-MS between an internal standard material, phenytoin and an active form, 2-acetylnaphtho[2,3-b]furan-4,9-dione, and are expressed in %.
In the same way as Example 6, the incubation time was set as 120 minutes later, and the conversion rate of each of various test compounds to 2-acetylnaphtho[2,3-b]furan-4,9-dione in human plasma, CD1 mouse plasma, and pH 7.4 phosphate buffer solution was measured. A series of the present compounds were confirmed to be converted to 2-acetylnaphtho[2,3-b]furan-4,9-dione in pH 7.4 phosphate buffer solution in addition to human plasma and CD1 mouse plasma. Therefore, a series of the test compounds of the present invention were confirmed to be converted to the activated form via a route other than an enzymatic conversion.

[3] = Evaluation of a conversion rate to 2-acetylnaphtho[2,3-b]furan-4,9-dione in human plasma; assay type: in vitro ADME; settings: 1 umol/L; for % Measurement value of Activated form (conversion rate to 2-acetylnaphtho[2,3-b]furan-4,9-dione): human; for % Measurement value (conversion rate to 2-acetylnaphtho[2,3-b]furan-4,9-dione): Human plasma, 37° C., incubation time 120 min
Method: as §1, §2, §3, §4, §5
In the same way as Example 6, the incubation time was set as 120 minutes later, and the conversion rate of each of various test compounds to 2-acetylnaphtho[2,3-b]furan-4,9-dione in human plasma, CD1 mouse plasma, and pH 7.4 phosphate buffer solution was measured.

Solubility test = settings: 50 mmol/L glycine buffer solution (pH 2.0), room temperature, 24 hours shaking
Method: A water-soluble prodrug was added into 50 mmol/L glycine buffer solution (pH 2.0). After shaking at room temperature for 24 hours, the mixture was filtered through a membrane filter, and then the filtrate was measured with HPLC.
The measurement condition of HPLC is as described below. HPLC condition column: Acquity UPLC BEH C18, 1.7 um, 50×2.1 mm
Mobile phase: A: 0.1% trifluoroacetic acid-containing water

Row | Compound | % Measurement value (conversion rate to 2-acetylnaphtho[2,3-b]furan-4,9-dione) ([1]; incubation time 120 min) [%] | % Measurement value (conversion rate to 2-acetylnaphtho[2,3-b]furan-4,9-dione) [3] [%] | Solubility in pH 2.0 buffer solution (Solubility test) [mg/mL] | other results
1 | CC(=O)c1cc2c(o1)C(=O)c1ccccc1C2=O [Activated form, 2-acetylnaphtho[2,3-b]furan-4,9-dione, reference compound] | – | – | – | % Measurement value of Activated form (conversion rate to 2-acetylnaphtho[2,3-b]furan-4,9-dione) ([1]; incubation time 0 min): 0%; % Measurement value of Activated form (conversion rate to 2-acetylnaphtho[2,3-b]furan-4,9-dione) ([1]; incubation time 5 min): 20%; % Measurement value of Activated form (conversion rate to 2-acetylnaphtho[2,3-b]furan-4,9-dione) ([1]; incubation time 10 min): 29%; % Measurement value of Activated form (conversion rate to 2-acetylnaphtho[2,3-b]furan-4,9-dione) ([1]; incubation time 30 min): 55%; % Measurement value of Activated form (conversion rate to 2-acetylnaphtho[2,3-b]furan-4,9-dione) ([1]; incubation time 60 min): 61%; % Measurement value of Activated form (conversion rate to 2-acetylnaphtho[2,3-b]furan-4,9-dione) ([1]; incubation time 120 min): 78%; % Measurement value of Activated form (conversion rate to 2-acetylnaphtho[2,3-b]furan-4,9-dione) ([2]; 0 min): 0%; % Measurement value of Activated form (conversion rate to 2-acetylnaphtho[2,3-b]furan-4,9-dione) ([2]; 5 min): 23%; % Measurement value of Activated form (conversion rate to 2-acetylnaphtho[2,3-b]furan-4,9-dione) ([2]; 10 min): 31%; % Measurement value of Activated form (conversion rate to 2-acetylnaphtho[2,3-b]furan-4,9-dione) ([2]; 30 min): 63%; % Measurement value of Activated form (conversion rate to 2-acetylnaphtho[2,3-b]furan-4,9-dione) ([2]; 60 min): 67%; % Measurement value of Activated form (conversion rate to 2-acetylnaphtho[2,3-b]furan-4,9-dione) ([2]; 120 min): 76%; % Measurement value of Activated form (conversion rate to 2-acetylnaphtho[2,3-b]furan-4,9-dione) ([3]; 0 min): 0%; % Measurement value of Activated form (conversion rate to 2-acetylnaphtho[2,3-b]furan-4,9-dione) ([3]; 5 min): 24%; % Measurement value of Activated form (conversion rate to 2-acetylnaphtho[2,3-b]furan-4,9-dione) ([3]; 10 min): 31%; % Measurement value of Activated form (conversion rate to 2-acetylnaphtho[2,3-b]furan-4,9-dione) ([3]; 30 min): 48%; % Measurement value of Activated form (conversion rate to 2-acetylnaphtho[2,3-b]furan-4,9-dione) ([3]; 60 min): 64%; % Measurement value of Activated form (conversion rate to 2-acetylnaphtho[2,3-b]furan-4,9-dione) ([3]; 120 min): 71%
2 | CC(=O)c1cc2c(OC(=O)NC3CCC(N)CC3)c3ccccc3c(OC(=O)NC3CCC(N)CC3)c2o1.Cl.Cl (stereo not drawn) [Example 7] | 41 | 69 | – | % Measurement value (conversion rate to 2-acetylnaphtho[2,3-b]furan-4,9-dione) [2]: 51%
3 | CC(=O)c1cc2c(OC(=O)NC3CCNCC3)c3ccccc3c(OC(=O)NC3CCNCC3)c2o1.Cl.Cl [Example 8] | 49 | 79 | – | % Measurement value (conversion rate to 2-acetylnaphtho[2,3-b]furan-4,9-dione) [2]: 79%
4 | CC(=O)c1cc2c(OC(=O)NCCOCCN)c3ccccc3c(OC(=O)NCCOCCN)c2o1.Cl.Cl [Example 9] | 50 | 65 | – | % Measurement value (conversion rate to 2-acetylnaphtho[2,3-b]furan-4,9-dione) [2]: 81%
5 | CC(=O)c1cc2c(OC(=O)NCC[C@H](N)C(=O)O)c3ccccc3c(OC(=O)NCC[C@H](N)C(=O)O)c2o1.Cl.Cl [Example 12] | 63 | 63 | – | % Measurement value (conversion rate to 2-acetylnaphtho[2,3-b]furan-4,9-dione) [2]: 78%
6 | CC(=O)c1cc2c(OC(=O)NCCCCN)c3ccccc3c(OC(=O)NCCCCN)c2o1.Cl.Cl [Example 13] | 13 | 95 | – | % Measurement value (conversion rate to 2-acetylnaphtho[2,3-b]furan-4,9-dione) [2]: 50%
7 | CC(=O)c1cc2c(OC(=O)NCCN)c3ccccc3c(O)c2o1.Cl [Example 18] | 80 | 81 | – | % Measurement value (conversion rate to 2-acetylnaphtho[2,3-b]furan-4,9-dione) [2]: 73%
8 | COC(=O)OCCNCCNC(=O)Oc1c2ccccc2c(OC(=O)NCCNCCOC(=O)OC)c2oc(C(C)=O)cc12.Cl.Cl [Example 69] | 71 | 90 | >5.0 | –
9 | COC(=O)OCCNCCCNC(=O)Oc1c2ccccc2c(OC(=O)NCCCNCCOC(=O)OC)c2oc(C(C)=O)cc12.Cl.Cl [Example 70] | 48 | 66 | >5.0 | –
10 | CC(=O)c1cc2c(O)c3ccccc3c(OC(=O)NCCNCCS(=O)(=O)N(C)C)c2o1.Cl [Example 79] | 39 | 71 | 0.3 | –
11 | CC(=O)c1cc2c(O)c3ccccc3c(OC(=O)NCCCNCCS(=O)(=O)N(C)C)c2o1.Cl [Example 80] | 32 | 54 | 1.0 | –
12 | CC(=O)c1cc2c(O)c3ccccc3c(OC(=O)NCCNCCS(C)(=O)=O)c2o1.Cl [Example 81] | 27 | 74 | 0.9 | –
13 | CC(=O)c1cc2c(O)c3ccccc3c(OC(=O)NCCCNCCS(C)(=O)=O)c2o1.Cl [Example 82] | 25 | 74 | 0.1 | –
14 | CC(=O)c1cc2c(O)c3ccccc3c(OC(=O)NCCCNCC(=O)NCC(=O)O)c2o1.Cl [Example 84] | 31 | 42 | >5.0 | –
15 | CC(=O)c1cc2c(O)c3ccccc3c(OC(=O)NCCNCC(=O)N3CCC3)c2o1.Cl [Example 85] | 37 | 38 | 4.1 | –
16 | CC(=O)c1cc2c(O)c3ccccc3c(OC(=O)NCCCNCC(=O)N3CCC3)c2o1.Cl [Example 86] | 38 | 55 | >5.0 | –
17 | CC(=O)c1cc2c(O)c3ccccc3c(OC(=O)NCCNCCOC(N)=O)c2o1.Cl [Example 87] | 36 | 38 | 4.0 | –
18 | CC(=O)c1cc2c(O)c3ccccc3c(OC(=O)NCCCNCCOC(N)=O)c2o1.Cl [Example 88] | 26 | 27 | 3.2 | –
19 | COC(=O)NCCNCCNC(=O)Oc1c2ccccc2c(O)c2cc(C(C)=O)oc12.Cl [Example 89] | 58 | 63 | >5.0 | –
20 | COC(=O)OCCNCCNC(=O)Oc1c2ccccc2c(O)c2cc(C(C)=O)oc12.Cl [Example 91] | 45 | 61 | 3.6 | –
21 | COC(=O)OCCNCCCNC(=O)Oc1c2ccccc2c(O)c2cc(C(C)=O)oc12.Cl [Example 92] | 26 | 34 | >5.0 | –
22 | Dimethyl 4,4′-((((2-acetylnaphtho[2,3-b]furan-4,9-diyl)bis(oxy))bis(carbonyl))bis-(azanediyl))(2S,2′S)-bis(2-aminobutanoate)dimethanesulfonate salt [Example 104] | 57 | 82 | >5.0 | –
